In patent US20230295164A1, “COMPOUNDS HAVING ANTIBACTERIAL ACTIVITY” (The Trustees of Princeton University, priority 2020, published 2023):

Tests used:
Test in all cases: MIC testing, broth microdilution in CAMHB
Type in all cases: cell-based
Conditions in all cases: 37° C., 18-20 hr, lowest concentration that completely inhibits visible growth
[1] = test system: Acinetobacter baumannii, ATCC 17978
Procedure: (§1) Compounds 1-71 were subsequently tested to determine MICs of the compounds relative to the following five species/strains of bacteria: Staphylococcus aureus, NRS384; Enterococcus faecalis, ATCC 51575; Salmonella typhimurium, CMCC 50115; Escherichia coli, ATCC BAA-198; and Acinetobacter baumannii, ATCC 17978. MIC testing of compounds was conducted according to the following protocol.
(§2) For each strain to be tested, made fresh streaks onto CAMHA from −80° C. glycerol stocks.
(§3) • CAMHB: Dissolved 22 g of the powder per 1 L of purified water. Mixed well. Autoclaved at 121° C. for 10 minutes. Stored at room temperature (RT) for no more than 1 week. • Saline: Dissolved 9 g of the powder per 1 L of purified water. Mixed well. Autoclaved at 121° C. for 30 minutes. Stored at room temperature (RT) for no more than 1 week.
(§4) Prepared the stock solutions of the tested compounds.
(§5) For compounds: • a) Dispensed 20 ul compound to the wells in column 1, and 20 ul DMSO to the wells in column 2 to 12; • b) Diluted the compounds by transferring 10 ul compounds from column 1 to 20 ul DMSO in column 2; mix with pipette. • c) Repeated until column 11 to get 3×serial dilutions. Column 12 was the DMSO control.
(§6) A multichannel pipette was used to deliver 1 μl of the diluted compound into each well of the corresponding daughter plate.
(§7) Scraped 4-8 single colonies from an agar plate into 5 ml saline in a 14 ml Falcon conical tube. Vortexed the tube to suspend the bacteria. Adjusted the turbidity to ˜0.2 (corresponding to 0.5 McFarland) with an Ultrospec 10 Cell density meter.
(§8) The strain suspension was diluted 200-fold in CAMHB medium and dispense into a sterile reservoir. A multichannel pipette was then used to deliver 99 μl of the diluted inocula into each well of the corresponding daughter plate.
(§9) Incubate the daughter plates at 37° C., 85% humidity for 18-20 hr.
(§10) A magnifying mirror device was used for ease of scoring the presence or absence of growth in the wells. 96-well micro-plates were photographed.

[2] = test system: Enterococcus faecalis, ATCC 51575
Procedure: as §1, §2, §3, §4, §5, §6, §7, §8, §9, §10

[3] = test system: Escherichia coli, ATCC BAA-198
Procedure: as §1, §2, §3, §4, §5, §6, §7, §8, §9, §10

[4] = test system: Salmonella typhimurium, CMCC 50115
Procedure: as §1, §2, §3, §4, §5, §6, §7, §8, §9, §10

[5] = test system: Staphylococcus aureus, NRS384
Procedure: as §1, §2, §3, §4, §5, §6, §7, §8, §9, §10

Compound MICs, Acinetobacter baumannii, ATCC 17978 [1] [µg/mL]	Compound MICs, Enterococcus faecalis, ATCC 51575 [2] [µg/mL]	Compound MICs, Escherichia coli, ATCC BAA-198 [3] [µg/mL]	Compound MICs, Salmonella typhimurium, CMCC 50115 [4] [µg/mL]	Compound MICs, Staphylococcus aureus, NRS384 [5] [µg/mL]	Structure (SMILES)
7.11	0.09	7.11	0.79	0.26	CCc1ccc(Cn2ccc3c4c(N)nc(N)nc4ccc32)cc1 [Compound 31]
7.11	0.03	2.37	0.26	0.26	C=Cc1ccc(Cn2ccc3c4c(N)nc(N)nc4ccc32)cc1 [Compound 33]
21.3	0.09	7.11	0.26	0.26	Nc1nc(N)c2c(ccc3c2ccn3Cc2ccc([N+](=O)[O-])cc2)n1 [Compound 34]
21.3	0.09	7.11	2.37	0.79	Nc1nc(N)c2c(ccc3c2ccn3CCc2ccc(F)cc2)n1 [Compound 39]
7.11	0.01	7.11	0.79	0.03	Cc1ccc(Cn2ccc3c4c(N)nc(N)nc4ccc32)c2ccccc12 [Compound 42]
64	0.03	7.11	7.11	0.09	Nc1nc(N)c2c(ccc3c2ccn3Cc2ccc(Br)c3ccccc23)n1 [Compound 44]
7.11	0.003	7.11	0.03	0.09	Nc1nc(N)c2c(ccc3c2ccn3Cc2ccc(C(F)(F)F)nc2)n1 [Compound 50]
>64	0.003	21.3	0.26	0.26	Nc1nc(N)c2c(ccc3c2ccn3Cc2ccc(B(O)O)cc2)n1 [Compound 51]
2.37	0.01	7.11	0.03	0.03	Nc1nc(N)c2c(ccc3c2ccn3Cc2ccnc(F)c2)n1 [Compound 56]
2.37	0.03	7.11	0.26	0.09	Nc1nc(N)c2c(ccc3c2ccn3Cc2ccc(-c3ccccc3)cn2)n1 [Compound 58]
7.11	0.03	21.3	0.26	0.26	CC(C)c1ccc(Cn2ccc3c4c(N)nc(N)nc4ccc32)nc1 [Compound 59]

The next lines start with the molecule.

Structure (SMILES)	Compound MICs, Acinetobacter baumannii, ATCC 17978 [1] [µg/mL]	Compound MICs, Enterococcus faecalis, ATCC 51575 [2] [µg/mL]	Compound MICs, Escherichia coli, ATCC BAA-198 [3] [µg/mL]	Compound MICs, Salmonella typhimurium, CMCC 50115 [4] [µg/mL]	Compound MICs, Staphylococcus aureus, NRS384 [5] [µg/mL]
COc1ccc(-c2cc3c(ccn3Cc3ccc(F)cc3)c3c(N)nc(N)nc23)cc1 [Compound 41]	21.3	0.09	64	0.79	2.37
Nc1nc(N)c2c(n1)c(-c1cccnc1)cc1c2ccn1Cc1ccc(F)cc1 [Compound 43]	64	0.09	64	2.37	2.37
Nc1nc(N)c2c(n1)c(Br)cc1c2ccn1Cc1ccc(F)cc1 [Compound 46]	7.11	≤0.001	>64	2.37	0.79
C#Cc1ccc(Cn2ccc3c4c(N)nc(N)nc4c(Br)cc32)cc1 [Compound 47]	>64	0.003	>64	2.37	0.09
Nc1nc(N)c2c(n1)c(C1CC1)cc1c2ccn1Cc1ccc(F)cc1 [Compound 49]	>64	0.26	>64	2.37	2.37
Nc1nc(N)c2c(n1)c(-c1ccc(F)cc1)cc1c2ccn1Cc1ccc(F)cc1 [Compound 52]	>64	2.37	>64	21.3	7.11
N#Cc1cncc(Cn2ccc3c4c(N)nc(N)nc4ccc32)c1 [Compound 53]	64	0.26	21.3	0.26	0.26
C=C(Cn1ccc2c3c(N)nc(N)nc3c(Br)cc21)C(=O)OC [Compound 54]	64	0.003	>64	21.3	2.37
Cc1cc2c(ccn2Cc2ccc(F)cc2)c2c(N)nc(N)nc12 [Compound 55]	2.37	0.03	7.11	0.26	0.26
N#Cc1ccc(Cn2ccc3c4c(N)nc(N)nc4ccc32)s1 [Compound 57]	7.11	0.03	7.11	0.09	0.09
